Marks after values point to notes of the source that are not given here.
Columns and labels:
Escherichia coli = assay: MIC and synergy checkerboard assay, broth microdilution; format: cell-based
Protocol: (§1) The described novel combination was tested against both reference, and clinically resistant strains of S. aureus, E, coli, K. pneumoniae, and P. aeruginosa. Reference and clinical isolates were obtained from the American Type Culture Collection (ATCC, Manasas, VA.) and International Health Management Associates, Inc. (Schaumberg, IL). Bacteria were cultured in trypticase soy broth, concentrated 10-fold by centrifugation, and cryopreserved in the same medium containing 20% glycerol by holding at −80° C. Every two weeks a small amount of frozen culture was removed aseptically, and streaked on fresh trypticase soy agar plates to act as a working inoculum. Following overnight growth at about 37° C., the plates were wrapped in parafilm, and held at about 4° C. Bacteria (4-5 colonies) were then aseptically transferred into broth growth medium for assays as needed.
(§2) Minimum inhibitory concentration (MIC) assays were performed in a manner as described for the CLSI Agar dilution or broth microdilution assay guideline (see, Clinical Laboratory Standards Institute, 2009, Methods for Dilution Antimicrobial Susceptibility Tests for Bacteria That Grow Aerobically; Approved Standard, Eighth Edition, M07-A8, Vol. 29, No. 2). For example, known antibiotics or the compositions described herein were dissolved, serially diluted, and then added to tempered molten Mueller-Hinton Agar before pouring of plates; or were dissolved, and then serially diluted in 100 μL cation-adjusted Mueller-Hinton broth across the assay plate in the classical 2-fold geometric format. D-glucose-6-phosphate was included as a medium supplement in both agar, and broth at a concentration of 50 mg/L. Antibiotic concentrations for agar assay were at the final concentration. Antibiotic concentrations for broth microdilution in each well at this point were double what the final assay concentration would be. Bacterial inocula were prepared by swabbing several colonies from a fresh agar plate, and re-suspending the bacteria to a density that was the 0.5 McFarland turbidity standard, considered close or equivalent to 1×10^8 CFU/mL. For agar dilution, a steers replicator was utilized to deliver 1×10^4 CFU/spot. For broth microdilution, the bacterial inocula were diluted in the cation-adjusted Mueller-Hinton broth to 1×10^6 CFU/mL, and 100 μL was overlayered onto the wells containing a diluted antibiotic or a composition described. Following incubation as per the guideline, results were recorded as growth or no growth, and the lowest concentration of the antibiotic or the composition described where no growth was observed was declared the MIC.
(§3) To assay for synergy of antibacterial combinations, a recognized synergy checkerboard assay, adapted from the CLSI guideline microdilution assay, was utilized (see Eliopoulos, G. M., and Moellering, R. C, Jr., 1996. Antimicrobial Combinations, pg. 330-396. In: Lorian, V. (Ed.), Antibiotics in Laboratory Medicine, 4th Ed., Williams & Wilkins; Baltimore, MD). In the case of the agar dilution method, each antibiotic alone, or in combination was added to agar prior to plate pouring. For broth microdilution, the first compound (or antibiotic or agent) was diluted in cation-adjusted Mueller-Hinton broth across the plate along the horizontal axis with each well in a row containing 50 μL of an identical concentration of compound (or antibiotic). Along the vertical axis a dilution series of the second compound (or antibiotic) was dispensed. At this point the drug concentrations are four-fold of the final desired working concentration. […] Following incubation, wells with no growth are noted. […] FIC=(MIC-A combination/MIC-A alone)+(MIC-B combination/MIC-B alone).
(§4) In the above, FIC: Synergy=FIC<0.5; Additive=FIC>0.5-1; Indifferent=FIC>1-2; Antagonism=FIC>2-4.

K. pneumoniae = assay: as above; format: cell-based
Protocol: as §1, §2, §3, §4

Pseudomonas aeruginosa = assay: as above; format: cell-based
Protocol: as §1, §2, §3, §4

Staphylococcus aureus = assay: as above; format: cell-based
Protocol: as §1, §2, §3, §4

P. aeruginosa = assay: MIC and synergy checkerboard assay, agar dilution; format: cell-based
Protocol: as §1, §2, §3, §4

P. mirabilis = assay: MIC and synergy checkerboard assay, broth microdilution (uUTI species); format: cell-based, Proteus mirabilis
Protocol: as §2
To assay for synergy of antibacterial combinations, a recognized synergy checkerboard assay, adapted from the CLSI guideline microdilution assay, was utilized (see Eliopoulos, G. M., and Moellering, R. C, Jr., 1996. Antimicrobial Combinations, pg. 330-396. In: Lorian, V. (Ed.), Antibiotics in Laboratory Medicine, 4th Ed., Williams & Wilkins; Baltimore, MD). In the case of the agar dilution method, each antibiotic alone, or in combination was added to agar prior to plate pouring. For broth microdilution, the first compound (or antibiotic or agent) was diluted in cation-adjusted Mueller-Hinton broth across the plate along the horizontal axis with each well in a row containing 50 μL of an identical concentration of compound (or antibiotic). Along the vertical axis a dilution series of the second compound (or antibiotic) was dispensed. At this point the drug concentrations are four-fold of the final desired working concentration. […] Following incubation, wells with no growth are noted. […]

[1] = representative pharmacokinetic parameters; format: in vivo
Excerpt: The therapeutically effective amount may be modified by pharmacokinetic, and pharmacodynamic analysis as is understood in the field. In some embodiments, the novel composition may be provided prophylactically or preventatively or protectively, which may, in some instances, be at or below a therapeutically effective amount.

E. coli = settings: cited from earlier work

## C[C@@H]1O[C@@H]1P(=O)(O)O [Fosfomycin, cis-1,2-epoxypropyl phosphonic acid]
Escherichia coli; Escherichia coli 846439
  MIC (Combo as F/DP/SM; second compound as DP/SM): 32 µg/mL
Escherichia coli; Escherichia coli 846446
  MIC (Combo as F/DP/SM; second compound as DP/SM): 2 µg/mL
Escherichia coli; Escherichia coli 846450
  MIC (Combo as F/DP/SM; second compound as DP/SM): 16 µg/mL
Escherichia coli; Escherichia coli 857021
  MIC (Combo as F/DP/SM; second compound as DP/SM): 32 µg/mL
Escherichia coli; Escherichia coli 863686
  MIC (Combo as F/DP/SM; second compound as DP/SM): 32 µg/mL
Escherichia coli; Escherichia coli (854535)
  MIC (Combo as F/DP/SM; second compound as DP/SM): 64 µg/mL
Escherichia coli; Escherichia coli (928017)
  MIC (Combo as F/DP/SM; second compound as DP/SM): 64 µg/mL
Escherichia coli; Escherichia coli (ATCC 25922)
  MIC (Combo as F/DP/SM; second compound as DP/SM): 8 µg/mL
K. pneumoniae; K. pneumoniae 848788
  MIC (Combo as F/DP/SM; second compound as DP/SM): >64* μg/ml
K. pneumoniae; K. pneumoniae 857147
  MIC (Combo as F/DP/SM; second compound as DP/SM): 16 µg/mL
K. pneumoniae; K. pneumoniae 857187
  MIC (Combo as F/DP/SM; second compound as DP/SM): 64 µg/mL
K. pneumoniae; K. pneumoniae 868968
  MIC (Combo as F/DP/SM; second compound as DP/SM): >64* μg/ml
K. pneumoniae; K. pneumoniae 868972
  MIC (Combo as F/DP/SM; second compound as DP/SM): 64 µg/mL
K. pneumoniae; K. pneumoniae 869028
  MIC (Combo as F/DP/SM; second compound as DP/SM): >64* μg/ml
K. pneumoniae; K. pneumoniae 875638
  MIC (Combo as F/DP/SM; second compound as DP/SM): 32 µg/mL
K. pneumoniae; K. pneumoniae 892483
  MIC (Combo as F/DP/SM; second compound as DP/SM): >64* μg/ml
K. pneumoniae; K. pneumoniae 926439
  MIC (Combo as F/DP/SM; second compound as DP/SM): 64 µg/mL
Pseudomonas aeruginosa; P. aeruginosa 826882
  MIC (Combo as F/DP/SM; second compound as DP/SM): 64 µg/mL
Pseudomonas aeruginosa; P. aeruginosa 880238
  MIC (Combo as F/DP/SM; second compound as DP/SM): 64 µg/mL
Pseudomonas aeruginosa; P. aeruginosa 906939
  MIC (Combo as F/DP/SM; second compound as DP/SM): 64 µg/mL
Pseudomonas aeruginosa; P. aeruginosa 926474
  MIC (Combo as F/DP/SM; second compound as DP/SM): 32 µg/mL
Pseudomonas aeruginosa; P. aeruginosa 945543
  MIC (Combo as F/DP/SM; second compound as DP/SM): 32 µg/mL
Pseudomonas aeruginosa; P. aeruginosa 945545
  MIC (Combo as F/DP/SM; second compound as DP/SM): 64 µg/mL
Pseudomonas aeruginosa; P. aeruginosa 945748
  MIC (Combo as F/DP/SM; second compound as DP/SM): 64 µg/mL
Pseudomonas aeruginosa; Pseudomonas aeruginosa (924190)
  MIC (Combo as F/DP/SM; second compound as DP/SM): 256* μg/ml
Pseudomonas aeruginosa; Pseudomonas aeruginosa (985543)
  MIC (Combo as F/DP/SM; second compound as DP/SM): 128* μg/ml
Staphylococcus aureus; S. aureus 829025 (MRSA strains)
  MIC (Combo as F/DP/SM; second compound as DP/SM): 4 µg/mL
Staphylococcus aureus; S. aureus 829049 (MRSA strains)
  MIC (Combo as F/DP/SM; second compound as DP/SM): 8 µg/mL
Staphylococcus aureus; S. aureus 903887 (MRSA strains)
  MIC (Combo as F/DP/SM; second compound as DP/SM): 8 µg/mL
Staphylococcus aureus; S. aureus 920516 (MRSA strains)
  MIC (Combo as F/DP/SM; second compound as DP/SM): 2 µg/mL
Staphylococcus aureus; S. aureus 920962 (MRSA strains)
  MIC (Combo as F/DP/SM; second compound as DP/SM): 2 µg/mL
Staphylococcus aureus; S. aureus 927596 (MRSA strains)
  MIC (Combo as F/DP/SM; second compound as DP/SM): 8 µg/mL
Staphylococcus aureus; S. aureus 938125 (MRSA strains)
  MIC (Combo as F/DP/SM; second compound as DP/SM): 4 µg/mL
Staphylococcus aureus; S. aureus 953041 (MRSA strains)
  MIC (Combo as F/DP/SM; second compound as DP/SM): 8 µg/mL
Staphylococcus aureus; S. aureus 956270 (MRSA strains)
  MIC (Combo as F/DP/SM; second compound as DP/SM): 28 µg/mL
Staphylococcus aureus; S. aureus 956362 (MRSA strains)
  MIC (Combo as F/DP/SM; second compound as DP/SM): 16 µg/mL
Staphylococcus aureus; S. aureus 967287 (MRSA strains)
  MIC (Combo as F/DP/SM; second compound as DP/SM): 8 µg/mL
Staphylococcus aureus; S. aureus 974980 (MRSA strains)
  MIC (Combo as F/DP/SM; second compound as DP/SM): 8 µg/mL
Staphylococcus aureus; S. aureus 979234 (MRSA strains)
  MIC (Combo as F/DP/SM; second compound as DP/SM): 16 µg/mL
Staphylococcus aureus; S. aureus 1045190 (MRSA strains)
  MIC (Combo as F/DP/SM; second compound as DP/SM): 2 µg/mL
Staphylococcus aureus; Staphylococcus aureus (918019 - MRSA)
  MIC (Combo as F/DP/SM; second compound as DP/SM): 32 µg/mL
Staphylococcus aureus; Staphylococcus aureus (959797 - MRSA)
  MIC (Combo as F/DP/SM; second compound as DP/SM): 16 µg/mL
Staphylococcus aureus; Staphylococcus aureus (ATCC 29213 - MSSA)
  MIC (Combo as F/DP/SM; second compound as DP/SM): 32 µg/mL
Staphylococcus aureus; Staphylococcus aureus (ATCC 33591)
  MIC (Combo as F/DP/SM; second compound as DP/SM): 64 µg/mL
Staphylococcus aureus; Staphylococcus aureus (MGH-04)
  MIC (Combo as F/DP/SM; second compound as DP/SM): 128* μg/ml
Staphylococcus aureus; Staphylococcus aureus (USA-300 CDC- MRSA)
  MIC (Combo as F/DP/SM; second compound as DP/SM): 64 µg/mL
P. aeruginosa; P. aeruginosa 826882
  MIC (Combo as F/DP/SM; second compound as DP/SM): 128* μg/ml
P. aeruginosa; P. aeruginosa 880238
  MIC (Combo as F/DP/SM; second compound as DP/SM): 128* μg/ml
P. aeruginosa; P. aeruginosa 889058
  MIC (Combo as F/DP/SM; second compound as DP/SM): 128* μg/ml
P. aeruginosa; P. aeruginosa 906939
  MIC (Combo as F/DP/SM; second compound as DP/SM): 128* μg/ml
P. aeruginosa; P. aeruginosa 914881
  MIC (Combo as F/DP/SM; second compound as DP/SM): 128* μg/ml
P. aeruginosa; P. aeruginosa 924190
  MIC (Combo as F/DP/SM; second compound as DP/SM): 256* μg/ml
P. aeruginosa; P. aeruginosa 926474
  MIC (Combo as F/DP/SM; second compound as DP/SM): 64 µg/mL
P. aeruginosa; P. aeruginosa 945543
  MIC (Combo as F/DP/SM; second compound as DP/SM): 128* μg/ml
P. aeruginosa; P. aeruginosa 945545
  MIC (Combo as F/DP/SM; second compound as DP/SM): 128* μg/ml
P. aeruginosa; P. aeruginosa 945748
  MIC (Combo as F/DP/SM; second compound as DP/SM): 128* μg/ml
P. aeruginosa; P. aeruginosa PAO1
  MIC (Combo as F/DP/SM; second compound as DP/SM): 32 µg/mL
P. mirabilis; P. mirabilis 1071120
  MIC (Combo as F/DP/SM; second compound as DP/SM): 1 µg/mL
P. mirabilis; P. mirabilis 1124256
  MIC (Combo as F/DP/SM; second compound as DP/SM): 64 µg/mL
P. mirabilis; P. mirabilis 1128681
  MIC (Combo as F/DP/SM; second compound as DP/SM): 4 µg/mL
P. mirabilis; P. mirabilis 1184042
  MIC (Combo as F/DP/SM; second compound as DP/SM): 4 µg/mL
[1]; Dose: Fosfomycin 3000 mg, trimethoprim 720 mg
  kel (elimination rate constant): 0.122 h⁻¹
[1]; in vivo, 3000 mg, read-out: T ½ (converted)
  half-life: 5.7 h
[1]; in vivo, read-out: Tmax
  Tmax: 2 h
E. coli
  MIC: 0.5 to 2 µg/mL

From patent publication US11925653B2, “Combination therapy effective against microorganisms, including drug resistant microorganisms” (Fleurir ABX LLC, priority 2021, dated 2024)
